Laboratory results as given in patent US20220257706A1, “EPIDERMAL GROWTH FACTOR RECEPTOR (EGFR) LIGANDS” (NANYANG TECHNOLOGICAL UNIVERSITY, priority 2019, published 2022).

Key:
c-Jun = test: Gene expression analysis (qPCR) of c-Jun in HaCaT cells; format: cell-based, human; conditions: 2 h treatment
Experimental: Total RNA was extracted from HaCaT and primary human keratinocytes using PureLink™ RNA mini kit (Thermo Fisher Scientific, US). First-strand cDNA was synthesised from 600 ng of total RNA using SuperScript™ II Reverse Transcriptase and Oligo(dT)12-18 (Thermo Fisher Scientific, US) according to the manufacturer's instructions. Quantitative PCR (qPCR) was performed with iTaq Universal SYBR Green Supermix (Bio-Rad, US) on a CFX96 Touch Real-Time PCR Detection System (Bio-Rad, US) for 40 cycles. PCR reaction (20 μL): 3 μL cDNA, 1 μL primer mix (10 μM), 6 μL DEPC-treated water and 10 μL mastermix. […] GAPDH was used as a housekeeping gene for normalization. Fold changes of gene expressions with c-fos and c-Jun were calculated using the 2^−ΔΔCT method.

[1] = system: primary human keratinocytes; test: Primary human keratinocyte proliferation (crystal violet); format: cell-based; conditions: 72 h, crystal violet assay
Experimental: (§1) HaCaT (human keratinocyte), HUVEC-CS (endothelial cells) cells were cultured in Dulbecco's modification of Eagle's medium (DMEM) supplemented with 10% fetal bovine serum and 100 U/mL of penicillin and streptomycin. Normal Human Epidermal Keratinocytes adult purchased from Lifeline® cell technology were cultured in Lifeline® DermaLife K Medium. They were grown in a 5% CO2 humidified incubator at 37° C. HaCaT cells were stably transfected with pGL4.33[luc2P/SRE/Hygro] (Promega) and selected using 250 μg/mL hygromycin. Stable HaCaT cells expressing SRE luciferase reporter were maintained with 250 μg/mL hygromycin.
(§2) Cell proliferation was determined using crystal violet staining. […] 3417-Da-peptide aB1 is a CRP isolated from Achyranthes bidentata with the amino acid sequence […] (SEQ ID NO:11). Crystal violet staining was performed as previously described. Briefly, after the incubation period, the wells were fixed with 4% buffered paraformaldehyde for 20 min. The cells were then stained with 0.25% crystal violet in 20% methanol for 15 min. The excess crystal violet stain was rinsed with distilled water for 4-5 times and air-dried. Glacial acetic acid (10%) in Milli-Q water was added to extract the crystal violet stain. The absorbance was then measured at 595 nm using a microplate reader (Tecan Infinite® 200 Pro, Switzerland).

MEK1/2 = test: Western blot of phosphorylated MEK1/2 in HaCaT cells; format: cell-based, human; conditions: 5 μM
Experimental: Blot transfer was performed onto a PVDF membrane (GE healthcare, Sweden) at 250 mA for 120 min on ice. The blot was blocked with 5% BSA TBST before incubating overnight at 4° C. with anti-P-MEK1/2 rabbit antibody (1:2000 in 5% BSA TBST; Cell Signaling, US), anti-MEK1/2 rabbit antibody (1:2000 in 5% BSA TBST; Cell Signaling, US), anti-P-ERK1/2 rabbit antibody (1:2000 in 5% BSA TBST; Cell Signaling, US), anti-ERK1/2 rabbit antibody (1:2000 in 5% BSA TBST; Cell Signaling, US), and anti-β-actin mouse antibody (1:10000 in 5% BSA TBST; Merck Millipore, US). After incubation, the membrane was washed with TBST at room temperature three times for 10 min each. The blot was then incubated with secondary anti-mouse or anti-rabbit horseradish peroxidase (HRP) (1:5000 in 5% BSA TBST; Cell Signaling, US) and was incubated for another 1 h at room temperature. The blot was washed five times 10 min each with TBST at room temperature before addition of chemiluminescence substrate (Advansta, US) and exposure on X-ray film (Fujifilm, Japan).

EGFR = EGFR (Homo sapiens, UniProt P00533); test: Immunoprecipitation / western blot of EGFR tyrosine phosphorylation in HaCaT cells; format: cell-based; parameters: endogenous in cells; host or cells: HaCaT; conditions: 5 μM
Sequence of EGFR (P00533 25-1210): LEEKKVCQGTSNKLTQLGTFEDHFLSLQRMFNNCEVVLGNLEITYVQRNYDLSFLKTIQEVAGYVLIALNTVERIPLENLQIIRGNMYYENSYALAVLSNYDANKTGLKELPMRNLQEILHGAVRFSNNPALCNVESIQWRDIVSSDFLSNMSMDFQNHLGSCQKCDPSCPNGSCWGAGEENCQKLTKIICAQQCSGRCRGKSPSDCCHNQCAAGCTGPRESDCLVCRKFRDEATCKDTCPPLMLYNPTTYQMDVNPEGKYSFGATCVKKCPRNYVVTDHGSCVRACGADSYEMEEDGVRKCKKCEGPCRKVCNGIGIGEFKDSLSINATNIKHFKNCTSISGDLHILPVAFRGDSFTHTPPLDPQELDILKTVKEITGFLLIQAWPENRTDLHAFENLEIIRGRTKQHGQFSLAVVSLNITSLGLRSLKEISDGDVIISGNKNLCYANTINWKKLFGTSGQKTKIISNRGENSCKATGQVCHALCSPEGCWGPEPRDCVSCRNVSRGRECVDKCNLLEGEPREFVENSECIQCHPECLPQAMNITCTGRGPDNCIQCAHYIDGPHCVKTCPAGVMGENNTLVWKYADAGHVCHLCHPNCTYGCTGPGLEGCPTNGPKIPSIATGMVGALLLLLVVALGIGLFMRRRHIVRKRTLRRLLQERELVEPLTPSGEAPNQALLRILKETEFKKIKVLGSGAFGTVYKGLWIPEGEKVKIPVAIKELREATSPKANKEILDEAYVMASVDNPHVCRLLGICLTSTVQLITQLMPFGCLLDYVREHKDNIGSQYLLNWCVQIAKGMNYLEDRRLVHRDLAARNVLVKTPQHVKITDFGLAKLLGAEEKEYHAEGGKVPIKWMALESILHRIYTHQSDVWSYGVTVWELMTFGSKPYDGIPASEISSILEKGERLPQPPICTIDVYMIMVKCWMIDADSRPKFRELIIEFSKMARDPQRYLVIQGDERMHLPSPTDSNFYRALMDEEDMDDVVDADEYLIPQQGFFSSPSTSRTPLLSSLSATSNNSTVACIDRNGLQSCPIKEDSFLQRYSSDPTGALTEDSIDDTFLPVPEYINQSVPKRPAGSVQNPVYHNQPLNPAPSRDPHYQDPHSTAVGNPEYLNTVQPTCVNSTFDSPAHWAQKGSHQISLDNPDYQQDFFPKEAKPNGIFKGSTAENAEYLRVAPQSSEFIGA
Experimental: Immunoprecipitation was performed using EGFR (D38B1) rabbit monoclonal antibodies conjugated to magnetic beads (Cell Signaling, US). Briefly, the magnetic beads were washed with PBS three times and 50 μg HaCaT cell lysate was added to each tube and allowed to incubate overnight at 4° C. with rotation. After incubation, the magnetic beads were washed five times with PBS. A 6× loading dye with β-mercaptoethanol was added to the resin and heated for 10 min at 85° C. The resultant mixture was centrifuged at 14000 g×1 min and resolved using 10% SDS-PAGE at a 100 V constant for 120 min. Blot transfer was performed on a PVDF membrane (GE healthcare, Sweden) at 250 mA for 120 min on ice. The blot was blocked with 5% BSA TBST before incubating overnight at 4° C. with anti-phosphotyrosine-HRP (R&D systems, US) or anti-EGFR anti-rabbit antibody (1:1000 in 5% BSA TBST; Cell Signaling, US). After incubation, the membrane was washed with TBST at room temperature for three times at 10 min each. The blot was then incubated with secondary anti-rabbit horseradish peroxidase (HRP) (1:5000 in 5% BSA TBST) and was incubated for another 1 h at room temperature. The blot was washed five times 10 min each with TBST at room temperature before the addition of chemiluminescence substrate (Advansta, US) and exposure on X-ray film (Fujifilm, Japan).

C57BL/6 mice = test: Full-thickness splinted excisional wound healing in C57BL/6 mice; format: in vivo, mouse; conditions: topical, three consecutive days; bleogen pB1 10 nmol/wound, EGF 1 nmol/wound; vs saline
Experimental: C57BL/6 mice were obtained from Vital Rital Laboratories (Beijing, China). […] All experiments were approved and performed in accordance with the institutional guidelines of the Experimental Animal Center of the Chinese Academy of Medical Science (Beijing, China).
Full-thickness 5-mm splinted excisional wounding of mice was performed. Briefly, mice were anesthetized using an intraperitoneal injection of sodium pentobarbital (50 mg kg^−1). The hair of the back was shaved with an electric clipper followed by a depilatory cream. Using a 5-mm-diameter sterile biopsy punch, symmetrical full-thickness excisional wounds were created. Splints were placed around the wound using adhesive glue and secured with four interrupted sutures. The wounds and splints were covered with Tegaderm (3M, US). At indicated days within the 14 days post-injury course, wound diameters were measured. The size of wound was calculated from the average of two diameter measurements along the x and y axis.
Full-thickness 5 mm splinted excisional wounding of mice was performed on C57BL/6 mice as described above.

[2] = system: pepsin, trypsin, pronase, human neutrophil elastase; test: Proteolytic stability against a panel of proteases; conditions: human
Experimental: Samples were collected at various time points.
All collected samples from various stability assays were analyzed by RP-HPLC with a linear gradient of mobile phase A (0.05% TFA/H2O) and mobile phase B (0.05% TFA/ACN) on aeris peptide XB-C18 column (Phenomenex, US). The resulting peaks were collected and identified by MALDI-TOF MS. The results were expressed as percentage of initial concentration using the peak area of the HPLC profile.

HaCaT cells = format: cell-based, human
Experimental: as §1, §2

[3] = system: serum response element (SRE); test: SRE luciferase reporter assay in stable HaCaT cells; format: cell-based, human; conditions: 6 h incubation
Experimental: as §1
Briefly, the cells were cultured in a white 96-well plates to achieve 90% confluency. […] The luciferase assay was performed using the ONE-Glo EX Luciferase Assay System (Promega, US) as per the manufacturer's instructions. Luminescence was measured using a microplate reader (Tecan Infinite® 200 Pro, Switzerland).

Structure (SMILES): CC[C@H](C)[C@@H]1NC(=O)[C@H](CCC(=O)O)NC(=O)[C@H]([C@@H](C)O)NC(=O)[C@@H]2CSSC[C@@H]3NC(=O)[C@H](Cc4ccccc4)NC(=O)[C@H](CC(N)=O)NC(=O)[C@H](CO)NC(=O)[C@H](CSSC[C@H](NC(=O)[C@@H](N)CCC(N)=O)C(=O)N[C@@H](CCCCN)C(=O)N4CCC[C@H]4C(=O)N[C@@H](CC(N)=O)C(=O)NCC(=O)N[C@@H](C)C(=O)N[C@@H](CCCCN)C(=O)N2)NC(=O)[C@H](CSSC[C@@H](C(=O)N[C@@H](C)C(=O)N[C@@H](CC(N)=O)C(=O)N[C@@H](CCCNC(=N)N)C(=O)O)NC(=O)[C@H]([C@@H](C)O)NC(=O)CNC(=O)[C@H](CO)NC(=O)[C@H](CCCCN)NC(=O)[C@H](CCC(N)=O)NC(=O)CNC(=O)[C@H](C)NC(=O)[C@H](Cc2ccc(O)cc2)NC(=O)[C@H](CCCNC(=N)N)NC(=O)[C@H](CC(C)C)NC3=O)NC(=O)[C@@H]2CCCN2C(=O)[C@@H]2CCCN2C(=O)[C@H]([C@@H](C)CC)NC(=O)[C@H](CO)NC1=O [bleogen pB1]
- mRNA expression of c-Jun (c-Jun): significantly upregulate
- proliferation of primary human keratinocytes [1]: promotes the proliferation
- phosphorylation of MEK1/2 (MEK1/2): induces the phosphorylation
- phosphorylation of EGFR (EGFR): induces the phosphorylation
- wound healing, full-thickness excision wound model in C57 mice (C57BL/6 mice): accelerated wound healing from day 3 to day 11
- half-life at 0.1 M [2]: > 8.33 h
- proliferative activities on HaCaT cells, native versus synthetic (HaCaT cells): identical proliferative activities
- EC50 (HaCaT cells; 72 h): 130 nM
- difference in mitogenic potency between EGF and pB1 (HaCaT cells; HaCaT cell proliferation EC50): 100 fold
- EGFR dependence of proliferative/mitogenic effect (HaCaT cells; co-incubation with EGFR neutralizing antibody (clone LA1)): EGFR-dependent
- SRE-luciferase activity [3]: dose-dependently, increases the luciferase activity
